The assay has as its target SARS-CoV-2 M^pro (Severe acute respiratory syndrome coronavirus 2 (2019-nCoV) (SARS-CoV-2), UniProt P0DTD1). The assay is described as follows: biochemical. The note with it: for pIC50: compounds evaluated at 0.015-300 μM, read-out: IC50.
The mark [1] stands for this setting: read-out: Activity (% enzyme activity by fluorescence relative to initial enzyme activity), compound at 17 μM, duplicates, 20 min pre-incubation.
Setting [2] is: compound at 17 μM, duplicates, 20 min pre-incubation.
Where [3] appears, read: compound at 17 μM, duplicates, 20 min pre-incubation, read-out: Activity (% enzyme activity by fluorescence relative to initial enzyme activity).

pIC50: −log10 of the molar value. Read-outs that look alike come from different tables or passages of the source.

Data on 50 compounds can be found in patent publication US20240016777A1, “COMPOUNDS AND METHODS FOR TREATING VIRAL INFECTIONS” (priority 2020, published 2024).

`CC(C)=CCc1c(O)cc(O)c2c(=O)c(O[C@@H]3O[C@@H](C)[C@H](O)[C@@H](O)[C@H]3O)c(-c3ccc(O)cc3)oc12` [Baohuoside II]: under setting [1], the remaining activity at 17 µM was above 80%.

As to `COc1ccc(-c2oc3c(CC=C(C)C)c(O)cc(O)c3c(=O)c2O[C@@H]2O[C@@H](C)[C@H](O)[C@@H](O)[C@H]2O)cc1` [Baohuoside I], the remaining activity at 17 µM under setting [1] was in the range of 10 to 80%. Still for that read-out and setting: the same measure for `COc1ccc(-c2oc3c(CC=C(C)C)c(O)cc(O)c3c(=O)c2O[C@@H]2O[C@@H](C)[C@H](O[C@@H]3O[C@H](CO)[C@@H](O)[C@H](O)[C@H]3O)[C@@H](O)[C@H]2O)cc1` [Baohuoside VII]: 10 to 80%; for `CC(C)=CCc1c(O[C@@H]2O[C@H](CO)[C@@H](O)[C@H](O)[C@H]2O)cc(O)c2c(=O)c(O[C@@H]3O[C@@H](C)[C@H](O)[C@@H](O)[C@H]3O[C@@H]3O[C@@H](C)[C@H](O)[C@@H](O)[C@H]3O)c(-c3ccc(O)cc3)oc12` [Baohuoside V]: 10 to 80%.

For the compound `CC(C)=CCc1cc2c(cc1O)O[C@H](c1ccc(O)cc1)CC2=O` [Bavachin], under setting [1], the remaining activity at 17 µM is above 80%.

Regarding `COc1cc2c(cc1CC=C(C)C)C(=O)C[C@@H](c1ccc(O)cc1)O2` [Bavachinin], the remaining activity at 17 µM under setting [1] was above 80%. In the case of `COc1c(C2=Cc3ccc(O)cc3OC2)ccc(O)c1CC=C(C)C` [Bidwillol A], under setting [1], the remaining activity at 17 µM was above 80%. With `C[C@@H]1O[C@@H](OC[C@H]2O[C@@H](Oc3c(-c4ccc(O)cc4)oc4cc(O)cc(O)c4c3=O)[C@H](O)[C@@H](O)[C@H]2O)[C@H](O)[C@H](O)[C@H]1O` [Biorobin], the negative logarithm of the IC50 (pIC50) – broadly, −log10 of the IC50, conventionally taken in molar units – is 5.15. Under setting [2], the “Activity (% enzyme activity by fluorescence relative to initial enzyme activity)” value was “+++ (<10% enzyme activity as indicated by fluorescence measurements)”.

Consider `CC(C)=CCc1cc(-c2oc3c(CC=C(C)C)c(O)cc(O)c3c(=O)c2O)ccc1O` [Broussoflavonol F], for which the remaining activity at 17 µM under setting [1] was above 80%. Same read-out and setting: the same measure for `COc1ccc(-c2oc3c(CC=C(C)C)c(O[C@@H]4O[C@H](CO)[C@@H](O)[C@H](O)[C@H]4O)cc(O)c3c(=O)c2O[C@@H]2O[C@@H](C)[C@H](OC(C)=O)[C@@H](O)[C@H]2O[C@@H]2O[C@H](CO)[C@@H](O)[C@H](OC(C)=O)[C@H]2O)cc1` [Caohuoside E]: above 80%. `CC(C)=CCc1cc([C@H]2Oc3cc(O)cc(O)c3C(=O)[C@@H]2O)cc(CC=C(C)C)c1O` [Cathayanon H]: the remaining activity at 17 µM under setting [1] is above 80%. The same measure, in the same setting: under `CC(C)=CCC/C(C)=C/Cc1cc(-c2coc3cc(O)ccc3c2=O)ccc1O` [Corylifol A] stands above 80%.

In the case of `CC(C)=CCc1c(O)ccc2c(=O)cc(-c3ccc(O)c(O)c3)oc12` [Corylifol C], the remaining activity at 17 µM under setting [1] is above 80%. Consider `CC(C)=CCc1c(O)cc2c(c1O)C(=O)C[C@@H](c1ccc(O)cc1O)O2` [Cudraflavanone B], for which the remaining activity at 17 µM under setting [1] was above 80%. The same measure, in the same setting: the same measure for `CC(C)=CCc1c(-c2ccc(O)cc2O)oc2cc3c(c(O)c2c1=O)C=CC(C)(C)O3` [Cudraflavone B]: 10 to 80%; for `CC(C)=CC1Oc2cc(O)ccc2-c2oc3cc(O)cc(O)c3c(=O)c21` (centres unmarked) [Cyclocommunol]: above 80%; for `CC(C)=CCc1c2c(c(O)c3c(=O)c4c(oc13)-c1cc(O)c(O)cc1OC4C=C(C)C)C=CC(C)(C)O2` (centres unmarked) [Cycloheterophyllin]: above 80%. On the same count and under the same terms, under `CC(C)=CC1Oc2cc(O)ccc2-c2oc3c4c(cc(O)c3c(=O)c21)OC(C)(C)C=C4` (centres unmarked) [Cyclomorusin] stands above 80%; under `CC(C)=CCc1c(O)cc(O)c2c(=O)c3c(oc12)-c1ccc(O)cc1OC3C=C(C)C` (centres unmarked) [Cyclomulberrin], 10 to 80%. For `COc1c2c(cc(O)c1CC=C(C)C)OCC(c1ccc(O)cc1O)=C2` [Dehydroglyasperin C], the remaining activity at 17 µM under setting [1] is above 80%. For `C=C(C)C(O)Cc1cc(-c2coc3cc(O)c(CC=C(C)C)c(O)c3c2=O)ccc1O` (centres unmarked) [Derrisisoflavone B], the remaining activity at 17 µM under setting [1] is above 80%. Turning to `CC(C)=CCc1c(O)ccc([C@H]2COc3cc(O)cc(O)c3C2=O)c1O` [Dihydrolicoisoflavone], the remaining activity at 17 µM under setting [1] is above 80%.

Regarding `O=C1c2c(O)cc(O)cc2O[C@H](c2ccc(O)cc2O)[C@H]1O` [Dihydromorin], the remaining activity at 17 µM under setting [1] is above 80%. Take `C=C(C)C(O)Cc1cc(-c2oc3cc(O)c(OC)c(O)c3c(=O)c2OC)cc(CCC(C)CO)c1O` (centres unmarked) [Dodoviscin A]: under setting [1], the remaining activity at 17 µM was above 80%. For the compound `COc1c(-c2cc(CC=C(C)C)c(O)c(CCC(C)CO)c2)oc2cc(O)cc(O)c2c1=O` (centres unmarked) [Dodoviscin H], the remaining activity at 17 µM under setting [1] was above 80%.

`COc1cc(-c2oc3cc(O)cc(O)c3c(=O)c2OC)cc(CC=C(C)C)c1O` [Dodoviscin J]: the remaining activity at 17 µM under setting [1] was above 80%. Still for that read-out and setting: under `COc1c(O)cc2oc(-c3cc(CC=C(C)C)c4c(c3)CC(O)C(C)(C)O4)c(OC)c(=O)c2c1O` (centres unmarked) [Dodovisone A] stands above 80%. `COc1cc2c(c3c1CC[C@@H](c1ccccc1)O3)[C@H]1c3c(cc(O)c(C)c3OC)O[C@](c3ccccc3)(O2)[C@@H]1O` [Dracoflavan B1]: the pIC50 is 4.77. In addition, under setting [2], the “Activity (% enzyme activity by fluorescence relative to initial enzyme activity)” value was “++ (enzyme activity as indicated by fluorescence measurements ≥10% and <80%)”. With `COc1ccc(-c2oc3c(CC=C(C)C)c(O[C@@H]4O[C@H](CO)[C@@H](O)[C@H](O)[C@H]4O)cc(O)c3c(=O)c2O[C@@H]2O[C@@H](C)[C@H](O)[C@@H](O[C@@H]3O[C@H](CO)[C@@H](O)[C@H](O)[C@H]3O)[C@H]2O)cc1` [Epimedin A1], under setting [1], the remaining activity at 17 µM is above 80%. In the case of `COc1ccc(-c2oc3c(CC=C(C)C)c(O[C@@H]4O[C@H](CO)[C@@H](O)[C@H](O)[C@H]4O)cc(O)c3c(=O)c2O[C@@H]2O[C@@H](C)[C@H](O)[C@@H](O)[C@H]2O[C@@H]2O[C@H](CO)[C@@H](O)[C@H](O)[C@H]2O)cc1` [Epimedin A], the remaining activity at 17 µM under setting [1] lay within 10 to 80%. Same read-out and setting: under `COc1ccc(-c2oc3c(CC=C(C)C)c(O[C@@H]4O[C@H](CO)[C@@H](O)[C@H](O)[C@H]4O)cc(O)c3c(=O)c2O[C@@H]2O[C@@H](C)[C@H](O[C@@H]3OC[C@@H](O)[C@H](O)[C@H]3O)[C@@H](O)[C@H]2O)cc1` [Epimedin B1] stands 10 to 80%. Same read-out and setting: under `COc1ccc(-c2oc3c(CC=C(C)C)c(O[C@@H]4O[C@H](CO)[C@@H](O)[C@H](O)[C@H]4O)cc(O)c3c(=O)c2O[C@@H]2O[C@@H](C)[C@H](O)[C@@H](O)[C@H]2O[C@@H]2OC[C@@H](O)[C@H](O)[C@H]2O)cc1` [Epimedin B] stands 10 to 80%; under `COc1ccc(-c2oc3c(CC=C(C)C)c(O[C@@H]4O[C@H](CO)[C@@H](O)[C@H](O)[C@H]4O)cc(O)c3c(=O)c2O[C@@H]2O[C@@H](C)[C@H](O)[C@@H](O)[C@H]2O[C@@H]2O[C@@H](C)[C@H](O)[C@@H](O)[C@H]2O)cc1` [Epimedin C], 10 to 80%; under `COc1ccc(-c2oc3c(CC=C(C)C)c(O[C@@H]4O[C@H](CO)[C@@H](O)[C@H](O)[C@H]4O)cc(O)c3c(=O)c2O[C@@H]2O[C@@H](C)[C@H](OC(C)=O)[C@@H](O)[C@H]2O[C@@H]2O[C@H](COC(C)=O)[C@@H](O)[C@H](OC(C)=O)[C@H]2O)cc1` [Epimedin K], above 80%. Take `CC(C)=CCc1cc(-c2cc(=O)c3c(O)cc(O)c(CC=C(C)C)c3o2)cc(O)c1O` [Epimedokoreanin B]: the remaining activity at 17 µM under setting [1] is above 80%. `CC(C)=CCc1c(O)cc(O)c2c(=O)cc(-c3cc(O)c4c(c3)C(O)C(C(C)(C)O)O4)oc12` (centres unmarked) [Epimedokoreanin C]: the remaining activity at 17 µM under setting [1] is above 80%. Still for that read-out and setting: the same measure for `CC(C)=CCc1c(O[C@@H]2O[C@H](CO)[C@@H](O)[C@H](O)[C@H]2O)cc(O)c2c(=O)c(O[C@@H]3O[C@@H](C)[C@H](O)[C@@H](O)[C@H]3O)c(-c3ccc(O)cc3)oc12` [Epimedoside A]: above 80%; for `CC(C)=CCc1c(O)c(CC=C(C)C)c2occc(=O)c2c1O` [Eriosemation]: above 80%.

Turning to `C=C(C)C(O)Cc1c(O)c(CC=C(C)C)c(O)c2c(=O)c(-c3ccc(O)cc3)coc12` (centres unmarked) [Erysenegalensein E], the remaining activity at 17 µM under setting [1] was above 80%. Same read-out and setting: the same measure for `CC(C)=CCc1c(O)cc(O)c2c1O[C@H](c1ccc3c(c1)C=CC(C)(C)O3)CC2=O` [Euchrenone A10]: above 80%; for `CC(C)=CCc1cc(-c2coc3c(CC=C(C)C)c(O)c(CC=C(C)C)c(O)c3c2=O)ccc1O` [Euchrenone B1]: above 80%. On to `CC(C)=CCc1cc([C@@H]2CC(=O)c3c(O)cc(O)c(CC=C(C)C)c3O2)ccc1O` [Euchrestaflavanone A], for which, under setting [1], the remaining activity at 17 µM was above 80%. With `CC(C)=CCc1cc([C@@H]2CC(=O)c3c(O)cc(O)c(CC=C(C)C)c3O2)c(O)cc1O` [Euchrestaflavanone B], the negative logarithm of the IC50 (pIC50) is 4.02. Besides, the remaining activity at 17 µM under setting [3] lay in the range of 10 to 80%. Take `CC(C)=CCc1c(O[C@@H]2O[C@H](CO)[C@@H](O)[C@H](O)[C@H]2O)cc(O)c2c1O[C@H](c1ccc(O)cc1)CC2=O` [Flavaprin]: the remaining activity at 17 µM under setting [1] was above 80%. Consider `COc1cc2occ(-c3ccc(O)cc3)c(=O)c2c(O)c1CC=C(C)C` [Gancaonin G], for which the remaining activity at 17 µM under setting [1] is above 80%. Still for that read-out and setting: the same measure for `COc1ccc(-c2coc3c(CC=C(C)C)c(O)cc(O)c3c2=O)cc1` [Gancaonin M]: above 80%; for `COc1ccc(-c2coc3cc(O)c(CC=C(C)C)c(O)c3c2=O)c(O)c1` [Gancaonin N]: above 80%. `O=c1c(-c2ccc(O)cc2)coc2cc(O)cc(O)c12` [Genistein]: under setting [3], the remaining activity at 17 µM is above 80%.

On to `COc1cc(O)c2c(=O)cc(-c3ccc(OC)c(-c4c(O)cc(O)c5c(=O)cc(-c6ccc(O)cc6)oc45)c3)oc2c1` [Ginkgetin], for which the “Mpro inhibitory activity (comparison in words)” value is “comparable to amentoflavone”. As to `CC(C)=CCc1c(O)cc(O)c2c1O[C@H](c1ccccc1)CC2=O` [Glabranin], the remaining activity at 17 µM under setting [1] was above 80%.
